{"source": "paper PMC8800111", "about": "(The Journal of Biological Chemistry, 2021)", "format_in_all_cases": "cell-based", "key": {"[1]": {"molecular_target": "proteins of U3A human fibrosarcoma cells (4462 proteins detected) (Homo sapiens, UniProt O00487)", "settings": "protein PSMD14; U3A cells"}, "[2]": {"molecular_target": "proteins of U3A human fibrosarcoma cells (4462 proteins detected) (Homo sapiens, UniProt O75116)", "settings": "protein ROCK2; U3A cells"}, "[3]": {"molecular_target": "proteins of U3A human fibrosarcoma cells (4462 proteins detected) (Homo sapiens, UniProt O94992)", "settings": "protein HEXIM1, U3A cells"}, "[4]": {"molecular_target": "proteins of U3A human fibrosarcoma cells (4462 proteins detected) (Homo sapiens, UniProt P04920)", "settings": "protein SLC4A2; U3A cells"}, "[5]": {"molecular_target": "proteins of U3A human fibrosarcoma cells (4462 proteins detected) (Homo sapiens, UniProt P13489)", "settings": "protein RNH1; U3A cells"}, "[6]": {"molecular_target": "proteins of U3A human fibrosarcoma cells (4462 proteins detected) (Homo sapiens, UniProt P20839)", "sequence (P20839 whole entry)": "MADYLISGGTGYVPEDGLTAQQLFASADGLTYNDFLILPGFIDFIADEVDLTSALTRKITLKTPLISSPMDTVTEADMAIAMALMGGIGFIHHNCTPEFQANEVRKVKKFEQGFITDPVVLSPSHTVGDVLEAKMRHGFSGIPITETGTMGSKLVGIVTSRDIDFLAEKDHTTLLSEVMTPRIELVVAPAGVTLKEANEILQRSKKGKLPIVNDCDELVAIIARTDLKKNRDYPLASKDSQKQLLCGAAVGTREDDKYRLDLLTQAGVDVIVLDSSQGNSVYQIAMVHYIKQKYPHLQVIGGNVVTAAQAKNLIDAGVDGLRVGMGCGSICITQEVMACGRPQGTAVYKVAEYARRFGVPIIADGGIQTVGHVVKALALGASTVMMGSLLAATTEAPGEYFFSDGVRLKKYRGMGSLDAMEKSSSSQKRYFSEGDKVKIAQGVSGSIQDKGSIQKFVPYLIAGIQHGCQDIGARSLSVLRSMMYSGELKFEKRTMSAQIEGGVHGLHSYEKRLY", "settings": "protein IMPDH1, U3A cells"}, "[7]": {"molecular_target": "proteins of U3A human fibrosarcoma cells (4462 proteins detected) (Homo sapiens, UniProt P50990)", "settings": "protein CCT8; U3A cells"}, "[8]": {"molecular_target": "proteins of U3A human fibrosarcoma cells (4462 proteins detected) (Homo sapiens, UniProt Q06323)", "sequence (Q06323 whole entry)": "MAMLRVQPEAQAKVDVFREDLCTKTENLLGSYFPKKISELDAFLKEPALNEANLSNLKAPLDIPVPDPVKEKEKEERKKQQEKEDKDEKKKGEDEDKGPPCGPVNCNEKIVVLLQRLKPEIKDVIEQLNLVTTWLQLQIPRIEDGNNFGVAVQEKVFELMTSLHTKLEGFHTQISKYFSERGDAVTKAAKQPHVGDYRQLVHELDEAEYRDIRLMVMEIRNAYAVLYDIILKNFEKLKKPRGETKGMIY", "settings": "protein PSME1; soluble abundance after heat, U3A cells"}, "[9]": {"molecular_target": "proteins of U3A human fibrosarcoma cells (4462 proteins detected) (Homo sapiens, UniProt Q15149)", "settings": "protein PLEC; soluble abundance after heat, U3A cells"}, "[10]": {"molecular_target": "proteins of U3A human fibrosarcoma cells (4462 proteins detected) (Homo sapiens, UniProt Q16774)", "sequence (Q16774 whole entry)": "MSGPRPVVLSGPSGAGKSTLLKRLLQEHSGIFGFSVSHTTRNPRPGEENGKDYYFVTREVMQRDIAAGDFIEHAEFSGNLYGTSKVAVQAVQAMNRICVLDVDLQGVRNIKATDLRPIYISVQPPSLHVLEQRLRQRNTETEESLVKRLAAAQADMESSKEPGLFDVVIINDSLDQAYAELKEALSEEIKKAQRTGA", "settings": "protein GUK1; U3A, 10 μM, 2 h"}, "[11]": {"molecular_target": "proteins of U3A human fibrosarcoma cells (4462 proteins detected) (Homo sapiens, UniProt Q7L5N1)", "settings": "protein COPS6; U3A cells"}, "[12]": {"molecular_target": "proteins of U3A human fibrosarcoma cells (4462 proteins detected) (Homo sapiens, UniProt Q8IWX8)", "settings": "protein CHERP; soluble abundance after heat, U3A cells"}, "[13]": {"molecular_target": "proteins of U3A human fibrosarcoma cells (4462 proteins detected) (Homo sapiens, UniProt Q8N6T3)", "settings": "protein ARFGAP1; U3A, 10 μM, 2 h"}, "[14]": {"molecular_target": "proteins of U3A human fibrosarcoma cells (4462 proteins detected) (Homo sapiens, UniProt Q8TBZ3)", "settings": "protein WDR20, U3A cells"}, "[15]": {"molecular_target": "proteins of U3A human fibrosarcoma cells (4462 proteins detected) (Homo sapiens, UniProt Q8TD30)", "sequence (Q8TD30 whole entry)": "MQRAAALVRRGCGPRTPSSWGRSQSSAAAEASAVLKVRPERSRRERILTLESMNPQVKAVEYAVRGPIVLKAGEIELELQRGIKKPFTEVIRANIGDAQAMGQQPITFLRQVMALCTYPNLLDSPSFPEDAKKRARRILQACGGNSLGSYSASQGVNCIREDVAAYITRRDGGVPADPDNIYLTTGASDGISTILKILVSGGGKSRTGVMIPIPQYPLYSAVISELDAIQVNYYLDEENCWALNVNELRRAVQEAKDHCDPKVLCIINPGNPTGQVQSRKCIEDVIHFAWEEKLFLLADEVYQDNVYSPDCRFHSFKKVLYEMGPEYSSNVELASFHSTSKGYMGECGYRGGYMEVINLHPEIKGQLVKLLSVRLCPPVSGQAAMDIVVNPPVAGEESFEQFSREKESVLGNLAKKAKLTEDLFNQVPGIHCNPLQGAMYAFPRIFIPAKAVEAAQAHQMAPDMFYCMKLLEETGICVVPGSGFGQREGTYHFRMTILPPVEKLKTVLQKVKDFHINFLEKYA", "settings": "protein GPT2; U3A cells"}, "[16]": {"molecular_target": "proteins of U3A human fibrosarcoma cells (4462 proteins detected) (Homo sapiens, UniProt Q8WUR7)", "settings": "protein C15orf40, U3A cells"}, "[17]": {"molecular_target": "proteins of U3A human fibrosarcoma cells (4462 proteins detected) (Homo sapiens, UniProt Q96K76)", "settings": "protein USP47; U3A cells"}, "[18]": {"molecular_target": "proteins of U3A human fibrosarcoma cells (4462 proteins detected) (Homo sapiens, UniProt Q9BUL8)", "sequence (Q9BUL8 whole entry)": "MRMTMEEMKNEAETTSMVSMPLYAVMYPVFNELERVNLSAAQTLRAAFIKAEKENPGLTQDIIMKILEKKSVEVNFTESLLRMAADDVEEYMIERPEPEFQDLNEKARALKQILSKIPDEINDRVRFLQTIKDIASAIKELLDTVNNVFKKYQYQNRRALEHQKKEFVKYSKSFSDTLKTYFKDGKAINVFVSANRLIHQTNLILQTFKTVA", "settings": "protein PDCD10; soluble abundance after heat, U3A cells"}, "[19]": {"molecular_target": "proteins of U3A human fibrosarcoma cells (4462 proteins detected) (Homo sapiens, UniProt Q9BX40)", "settings": "protein LSM14B; U3A, 10 μM, 2 h"}, "[20]": {"molecular_target": "proteins of U3A human fibrosarcoma cells (4462 proteins detected) (Homo sapiens, UniProt Q9H6E4)", "settings": "protein CCDC134; U3A, 10 μM, 2 h"}, "[21]": {"molecular_target": "proteins of U3A human fibrosarcoma cells (4462 proteins detected) (Homo sapiens, UniProt Q9H832)", "sequence (Q9H832 whole entry)": "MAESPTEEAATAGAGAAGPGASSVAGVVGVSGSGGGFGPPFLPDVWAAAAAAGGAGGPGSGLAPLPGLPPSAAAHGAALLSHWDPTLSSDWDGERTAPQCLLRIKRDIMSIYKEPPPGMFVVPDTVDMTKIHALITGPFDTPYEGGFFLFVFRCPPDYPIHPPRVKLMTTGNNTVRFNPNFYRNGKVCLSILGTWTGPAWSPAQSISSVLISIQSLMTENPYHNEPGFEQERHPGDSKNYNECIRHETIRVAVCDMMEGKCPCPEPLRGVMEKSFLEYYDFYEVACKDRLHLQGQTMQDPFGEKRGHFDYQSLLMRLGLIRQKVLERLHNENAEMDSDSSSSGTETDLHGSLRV", "settings": "protein UBE2Z; U3A, 10 μM, 2 h"}, "[22]": {"molecular_target": "proteins of U3A human fibrosarcoma cells (4462 proteins detected) (Homo sapiens, UniProt Q9HAU0)", "settings": "protein PLEKHA5, U3A cells"}, "[23]": {"molecular_target": "proteins of U3A human fibrosarcoma cells (4462 proteins detected) (Homo sapiens, UniProt Q9NRZ9)", "sequence (Q9NRZ9 whole entry)": "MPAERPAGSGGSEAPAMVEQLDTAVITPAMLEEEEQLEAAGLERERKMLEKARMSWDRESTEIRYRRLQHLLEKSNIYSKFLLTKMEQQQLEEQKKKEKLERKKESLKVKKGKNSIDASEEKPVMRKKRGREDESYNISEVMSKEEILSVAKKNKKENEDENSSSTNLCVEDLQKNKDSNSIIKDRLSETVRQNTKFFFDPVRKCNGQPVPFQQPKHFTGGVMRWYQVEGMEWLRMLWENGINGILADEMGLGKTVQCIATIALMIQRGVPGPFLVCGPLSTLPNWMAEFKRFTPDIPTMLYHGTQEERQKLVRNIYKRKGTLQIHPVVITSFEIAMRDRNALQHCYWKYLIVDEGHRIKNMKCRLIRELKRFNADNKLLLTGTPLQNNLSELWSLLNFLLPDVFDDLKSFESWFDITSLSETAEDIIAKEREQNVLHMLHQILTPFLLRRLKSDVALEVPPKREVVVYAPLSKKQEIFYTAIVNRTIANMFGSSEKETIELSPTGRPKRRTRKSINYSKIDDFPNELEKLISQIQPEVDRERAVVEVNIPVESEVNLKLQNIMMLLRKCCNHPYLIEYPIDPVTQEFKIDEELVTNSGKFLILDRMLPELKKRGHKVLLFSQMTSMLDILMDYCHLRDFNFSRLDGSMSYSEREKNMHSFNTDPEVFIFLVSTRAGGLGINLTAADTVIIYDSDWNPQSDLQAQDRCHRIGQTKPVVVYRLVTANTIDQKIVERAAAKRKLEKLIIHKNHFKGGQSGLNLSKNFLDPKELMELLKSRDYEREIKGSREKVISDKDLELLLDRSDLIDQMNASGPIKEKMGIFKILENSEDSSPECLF", "settings": "protein HELLS; soluble abundance after heat, U3A cells"}, "[24]": {"molecular_target": "proteins of U3A human fibrosarcoma cells (4462 proteins detected) (Homo sapiens, UniProt Q9P2R7)", "sequence (Q9P2R7 53-463)": "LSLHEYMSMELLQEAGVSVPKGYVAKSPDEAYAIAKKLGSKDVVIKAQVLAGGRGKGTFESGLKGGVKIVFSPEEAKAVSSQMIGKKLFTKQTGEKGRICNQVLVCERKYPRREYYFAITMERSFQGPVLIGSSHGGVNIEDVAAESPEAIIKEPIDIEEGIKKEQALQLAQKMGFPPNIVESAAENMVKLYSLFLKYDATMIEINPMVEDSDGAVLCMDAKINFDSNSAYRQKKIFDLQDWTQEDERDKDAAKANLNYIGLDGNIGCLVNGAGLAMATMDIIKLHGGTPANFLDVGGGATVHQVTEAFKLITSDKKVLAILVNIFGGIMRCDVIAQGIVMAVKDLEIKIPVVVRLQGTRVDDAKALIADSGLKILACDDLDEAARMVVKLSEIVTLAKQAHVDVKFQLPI", "settings": "protein SUCLA2; U3A, 10 μM, 2 h"}, "[25]": {"molecular_target": "proteins of U3A human fibrosarcoma cells (4462 proteins detected) (Homo sapiens, UniProt Q9UPN9)", "sequence (Q9UPN9 whole entry)": "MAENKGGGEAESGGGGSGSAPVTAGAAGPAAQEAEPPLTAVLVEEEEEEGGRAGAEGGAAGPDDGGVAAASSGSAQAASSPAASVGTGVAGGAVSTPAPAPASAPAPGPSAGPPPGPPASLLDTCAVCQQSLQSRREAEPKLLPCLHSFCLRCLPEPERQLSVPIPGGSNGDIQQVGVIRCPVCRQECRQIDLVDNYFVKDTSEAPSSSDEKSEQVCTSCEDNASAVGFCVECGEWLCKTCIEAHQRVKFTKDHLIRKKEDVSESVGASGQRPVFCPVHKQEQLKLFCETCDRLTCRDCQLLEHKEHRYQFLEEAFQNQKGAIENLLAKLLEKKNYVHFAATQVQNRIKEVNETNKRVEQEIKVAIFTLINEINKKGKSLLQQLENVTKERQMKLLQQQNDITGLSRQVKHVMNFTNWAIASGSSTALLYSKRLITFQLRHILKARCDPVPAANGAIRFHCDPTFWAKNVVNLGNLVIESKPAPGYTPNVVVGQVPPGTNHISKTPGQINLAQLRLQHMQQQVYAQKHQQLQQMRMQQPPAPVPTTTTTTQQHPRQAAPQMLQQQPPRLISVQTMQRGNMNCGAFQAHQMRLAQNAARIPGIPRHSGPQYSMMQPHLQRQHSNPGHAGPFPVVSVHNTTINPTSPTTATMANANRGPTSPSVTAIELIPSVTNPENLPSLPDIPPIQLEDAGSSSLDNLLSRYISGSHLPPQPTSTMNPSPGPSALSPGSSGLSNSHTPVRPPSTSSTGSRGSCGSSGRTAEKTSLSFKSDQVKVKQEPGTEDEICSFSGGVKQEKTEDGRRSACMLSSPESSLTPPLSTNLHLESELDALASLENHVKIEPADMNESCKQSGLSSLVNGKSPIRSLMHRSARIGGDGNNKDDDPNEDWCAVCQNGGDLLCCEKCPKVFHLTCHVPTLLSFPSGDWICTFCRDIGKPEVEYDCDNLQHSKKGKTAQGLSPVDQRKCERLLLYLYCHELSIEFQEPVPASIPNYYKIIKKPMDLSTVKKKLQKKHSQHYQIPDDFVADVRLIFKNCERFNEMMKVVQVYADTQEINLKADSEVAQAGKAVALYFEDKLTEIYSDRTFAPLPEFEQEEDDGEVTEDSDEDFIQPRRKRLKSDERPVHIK", "settings": "protein TRIM33; U3A cells"}, "[26]": {"molecular_target": "proteins of U3A human fibrosarcoma cells (4462 proteins detected) (Homo sapiens, UniProt Q9Y281)", "settings": "protein CFL2, U3A cells"}, "[27]": {"molecular_target": "proteins of U3A human fibrosarcoma cells (4462 proteins detected) (Homo sapiens, UniProt Q9Y2Q3)", "settings": "protein GSTK1; U3A cells"}, "[28]": {"molecular_target": "proteins of U3A human fibrosarcoma cells (4462 proteins detected) (Homo sapiens, UniProt Q9Y385)", "settings": "protein UBE2J1; U3A cells"}, "[29]": {"molecular_target": "proteins of U3A human fibrosarcoma cells (4462 proteins detected) (Homo sapiens, UniProt Q9Y5A9)", "settings": "protein YTHDF2; U3A cells"}, "[30]": {"molecular_target": "proteins of U3A human fibrosarcoma cells (4462 proteins detected) (Homo sapiens, UniProt Q9Y6E2)", "sequence (Q9Y6E2 whole entry)": "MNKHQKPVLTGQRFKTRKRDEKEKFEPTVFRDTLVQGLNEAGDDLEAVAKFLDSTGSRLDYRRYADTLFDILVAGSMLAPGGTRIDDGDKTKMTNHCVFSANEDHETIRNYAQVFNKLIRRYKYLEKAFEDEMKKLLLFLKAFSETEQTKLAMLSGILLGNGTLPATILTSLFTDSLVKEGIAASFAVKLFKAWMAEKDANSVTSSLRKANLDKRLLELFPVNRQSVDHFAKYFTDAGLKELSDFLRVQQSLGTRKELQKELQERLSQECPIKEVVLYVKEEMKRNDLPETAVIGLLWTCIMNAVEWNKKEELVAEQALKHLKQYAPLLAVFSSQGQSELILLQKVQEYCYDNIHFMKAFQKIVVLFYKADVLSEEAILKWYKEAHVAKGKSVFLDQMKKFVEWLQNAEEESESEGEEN", "settings": "protein BZW2; U3A cells"}}, "data": [{"smiles": "CCc1nc(N)nc(N)c1-c1ccc(Cl)cc1", "note": "[pyrimethamine]", "values": [{"measurement": "Log2 (PYR/DMSO)", "setting": "[1]", "value": 0.17}, {"measurement": "Log2 (PYR/DMSO)", "setting": "[2]", "value": 0.17}, {"measurement": "Log2 (PYR/DMSO)", "setting": "[3]", "value": -0.04}, {"measurement": "Log2 (PYR/DMSO)", "setting": "[4]", "value": 0.16}, {"measurement": "Log2 (PYR/DMSO)", "setting": "[5]", "value": 0.18}, {"measurement": "Log2 (PYR/DMSO)", "setting": "[6]", "value": -0.04}, {"measurement": "Log2 (PYR/DMSO)", "setting": "[7]", "value": 0.16}, {"measurement": "Log2 (PYR/DMSO)", "setting": "[8]", "value": 0.14}, {"measurement": "Log2 (PYR/DMSO)", "setting": "[9]", "value": 0.14}, {"measurement": "Log2 (PYR/DMSO), GUK1", "setting": "[10]", "value": -0.14}, {"measurement": "Log2 (PYR/DMSO)", "setting": "[11]", "value": 0.16}, {"measurement": "Log2 (PYR/DMSO)", "setting": "[12]", "value": 0.14}, {"measurement": "Log2 (PYR/DMSO), ARFGAP1", "setting": "[13]", "value": -0.14}, {"measurement": "Log2 (PYR/DMSO)", "setting": "[14]", "value": -0.04}, {"measurement": "Log2 (PYR/DMSO)", "setting": "[15]", "value": 0.16}, {"measurement": "Log2 (PYR/DMSO)", "setting": "[16]", "value": -0.03}, {"measurement": "Log2 (PYR/DMSO)", "setting": "[17]", "value": 0.19}, {"measurement": "Log2 (PYR/DMSO)", "setting": "[18]", "value": 0.15}, {"measurement": "Log2 (PYR/DMSO), LSM14B", "setting": "[19]", "value": -0.17}, {"measurement": "Log2 (PYR/DMSO), CCDC134", "setting": "[20]", "value": 0.23}, {"measurement": "Log2 (PYR/DMSO), UBE2Z", "setting": "[21]", "value": 0.25}, {"measurement": "Log2 (PYR/DMSO)", "setting": "[22]", "value": -0.05}, {"measurement": "Log2 (PYR/DMSO)", "setting": "[23]", "value": 0.14}, {"measurement": "Log2 (PYR/DMSO), SUCLA2", "setting": "[24]", "value": 0.23}, {"measurement": "Log2 (PYR/DMSO)", "setting": "[25]", "value": 0.16}, {"measurement": "Log2 (PYR/DMSO)", "setting": "[26]", "value": -0.04}, {"measurement": "Log2 (PYR/DMSO)", "setting": "[27]", "value": 0.18}, {"measurement": "Log2 (PYR/DMSO)", "setting": "[28]", "value": 0.22}, {"measurement": "Log2 (PYR/DMSO)", "setting": "[29]", "value": 0.16}, {"measurement": "Log2 (PYR/DMSO)", "setting": "[30]", "value": 0.19}]}]}
